In brackets after ≈: the same amount, converted by molar mass.
How the values were obtained:
Assay type in all cases: physicochemical
[1] = Solubility test by visual observation; conditions: thermodynamic from solid; for solubility: both water and pH 6.8 buffer; for solubility at 0.5 h: visual observation
Protocol: The solubilities of 1-Na and 1-K salts were very high, so the solubility was determined by visual observation. Weighed about 5 mg of sample solid (1-Na or 1-K salt) into a 2 mL of vial, and then added 5 uL of pH 6.8 buffer solution or water each time until the solids was dissolved.
(§1) The solubilities of the three salts and the Compound 1 were studied in pH 6.8 buffer and water, and the data was summarized in Table 5.

[2] = Dynamic moisture sorption (DVS); conditions: at 80% RH
Protocol: DYNAMIC MOISTURE SORPTION: Dynamic moisture adsorption and desorption were studied using IGA sorp (Hiden Isochema Ltd. Warrington, UK). About 3-5 mg of prepared sample was placed in a sample basket and hung in the measuring chamber of an IGA Sorp. For an isotherm test, the chamber temperature is maintained by a water bath at constant 25±1° C. The sample was tested at a targeted RH of 10 to 90% full cycle in step mode. The analysis was performed in 10% RH increments. Time duration at each RH was set as min.30 minutes to max. 120 min, so that the sample could reach equilibrium with the chamber environment. Data was collected in 3 minutes increment.

[3] = Solubility test, suspension filtered and filtrate analyzed by HPLC; conditions: thermodynamic from solid, 25° C.
Protocol: The suspension was centrifuged under 200 rpm at 25° C., and 0.3 mL to 0.5 mL of […]. At each time point, the suspension was filtered to remove solid, and the filtrate was analyzed by HPLC.
as §1

Structure (SMILES)	solubility ([1]; aqueous buffer) [µg/mL]	solubility at 0.5 h ([1]; aqueous buffer, pH 6.8 buffer) [µg/mL]	solubility at 0.5 h ([1]; water) [µg/mL]	Water adsorbed (hygroscopicity) [2] [%]	solubility at 0.5 h ([3]; aqueous buffer, pH 6.8 buffer) [µg/mL]	solubility at 2 h ([3]; aqueous buffer, pH 6.8 buffer) [µg/mL]	solubility at 0.5 h ([3]; water) [µg/mL]	solubility at 2 h ([3]; water) [µg/mL]
N#Cc1ccc(-c2cnccc2SCC2(CC(=O)[O-])CC2)cc1.[K+] [1-K salt, potassium 2-(1-(((3-(4-cyanophenyl)pyridin-4-yl)thio)methyl)cyclopropyl)acetate]	> 400000	> 400000	> 400000	50.63				
N#Cc1ccc(-c2cnccc2SCC2(CC(=O)[O-])CC2)cc1.[Na+] [1-Na salt, sodium 2-(1-(((3-(4-cyanophenyl)pyridin-4-yl)thio)methyl)cyclopropyl)acetate]	> 400000	> 400000	> 400000	8.28				
N#Cc1ccc(-c2cnccc2SCC2(CC(=O)O)CC2)cc1 [Compound 1, 2-(1-(((3-(4-cyanophenyl)pyridin-4-yl)thio)methyl)cyclopropyl)acetic acid]					83 (≈ 256 µM)	84 (≈ 259 µM)	19 (≈ 58.6 µM)	34 (≈ 105 µM)

Source: patent US11685720B2, “Salt forms of URAT-1 inhibitors” (INVENTISBIO CO., LTD., priority 2018, dated 2023)
